How the values were obtained:
[1] = tested on: morning glory (Pharbitis nil var. Violet) seedlings; experiment: Low light cultivation experiment: number of days until lodging of morning glory young plants; type: in vivo; settings: for Average value (days) of the numbers of days until lodging: 250 mL per pot once every four days, 200 lux, 23° C.; for effectiveness to low light cultivation (days until lodging versus control test solution): verdict in words
Description: As a plant, morning glory (Pharbitis nil var. Violet) seedlings (day 7 after germination) were used. Experiments were conducted in an incubator (low temperature of 23° C.) in daily cycles where a light period (200 lux) is 14 hours and a dark period is 10 hours in a day. Morning glory seeds (purchased from Marutane Co., Ltd., Kyoto) were sown in black plastic pots (commercially available No. 105 size: diameter 105 cm, height 90 cm). Vermiculite was used as culture medium (the wet weight of vermiculite in a pot was 350 g).
250 mL of a test solution was given to each pot once every four days. Test data was taken from 10 morning glory seedlings (young plants) grown per pot. After start of the test, the number of seedlings that lodged was counted every day. A lodging criterion is that the hypocotyl (a rachis under a cotyledon) of a young plant lodges and the cotyledon contacts culture medium, or the whole cotyledon died. Lodged young plants were removed each time. Note that the effect was evaluated using the average value of the numbers of days until lodging. The average value was calculated as follows. For example, when three plants lodged on day 9, four plants lodged on day 10, and three plants lodged on day 11, then the average value is 10.0 (=(9×3+10×4+11×3)/10).
Eight organic acids (aminolevulinic acid, citric acid, malic acid, succinic acid, tartaric acid, acetic acid, oxalic acid, and lactic acid) were prepared. Each organic acid was dissolved in a 500-fold dilution of a liquid fertilizer (VIGOR LIFE V) (a solution in which VIGOR LIFE V was diluted 500-fold with distilled water). Thereafter, the solution was adjusted to pH 5.0 with potassium hydroxide. Note that the organic acid concentration of each test solution was 5 mM.
A 500-fold dilution of VIGOR LIFE V was used as a control test solution.
The eight test solutions and the control test solution were used to conduct the low light cultivation experiment. Note that the upper row of Table 1 indicates the organic acids contained in the test solutions (the control test solution contained no organic acid). Also, the lower row of Table 1 indicates the average values (days) of the numbers of days until lodging of the morning glory young plants.
Six sugars (sucrose, glucose, fructose, trehalose, palatinose, and xylose) were prepared. Each sugar was dissolved in a 500-fold dilution of a liquid fertilizer (VIGOR LIFE V) (a solution in which VIGOR LIFE V was diluted 500-fold with distilled water). Note that the sugar concentration of each test solution was 3%.
Also, a 500-fold dilution of VIGOR LIFE V was used as a control test solution. […]
Note that the upper row of Table 2 indicates the sugars contained in the test solutions (the control test solution contained no sugar). Also, the lower row of Table 2 indicates the average values (days) of the numbers of days until lodging of the morning glory young plants.

[2] = tested on: houseplant weeping fig (Ficus benzyamina); experiment: Low light cultivation of weeping fig: leaf survival ratio; type: in vivo; settings: after four weeks, verdict in words
Description: The inorganic solution was used as a control reagent. (Reagent 1: the inorganic solution in which aminolevulinic acid is dissolved, Reagent 2: the inorganic solution in which citric acid is dissolved, and Reagent 3: the inorganic solution in which citric acid and sucrose are dissolved).
Note that, in respective reagents, the citric acid concentration was 5 mM, the sucrose concentration was 3%, and the aminolevulinic acid concentration was 100 ppm. The reagents containing citric acid (Reagent 2 and Reagent 3) were adjusted to pH 5.0 with potassium hydroxide.
Low light cultivation was conducted using the reagents and a houseplant weeping fig, with two methods below.
Regular cultivation: four commercially available weeping fig plants in No. 4-sized pots were prepared. The four reagents (Reagents 1 to 3 and the control reagent) were given to the respective plants in an amount of 50 mL once (Monday) every week. Watering was performed in an amount of 50 mL twice (Wednesday and Friday) every week. […]
The effect of each reagent was evaluated by counting the number of leaves for each pot and calculating the survival ratio (%) of leaves every week. Note that the leaf survival ratio (%) was calculated as a “survival ratio (%)=the number of counted weeping fig leaves/the number of weeping fig leaves before low light cultivation (initial value)×100”.

[3] = organic acid 5 mM in 500-fold dilution of VIGOR LIFE V, pH 5.0
[4] = sugar 3% in 500-fold dilution of VIGOR LIFE V

SMILES | Average value (days) of the numbers of days until lodging [1, 3] | Average value (days) of the numbers of days until lodging [1, 4] | further results
CC(=O)O [Acetic acid, acetic acid] | 3.9 days | – | –
OC[C@H]1O[C@@](CO)(O[C@H]2O[C@H](CO)[C@@H](O)[C@H](O)[C@H]2O)[C@@H](O)[C@@H]1O [Sucrose, sucrose] | – | 25.9 days | effectiveness to low light cultivation (days until lodging versus control test solution) ([1]; sugar 3%): particularly effective
NCC(=O)CCC(=O)O [Aminolevulinic acid, aminolevulinic acid, reference compound] | 2.5 days | – | –
O=C(CO)[C@@H](O)[C@H](O)[C@H](O)CO [Fructose, fructose] | – | 22.1 days | effectiveness to low light cultivation (days until lodging versus control test solution) ([1]; sugar 3%): particularly effective
O=C(O)CC(O)C(=O)O (centres unmarked) [Malic acid, malic acid] | 11.1 days | – | effectiveness to low light cultivation (days until lodging versus control test solution) ([1]; organic acid 5 mM, pH 5.0): effective
O=C(O)CC(O)(CC(=O)O)C(=O)O [Citric acid, citric acid] | 12.9 days | – | effectiveness to low light cultivation (days until lodging versus control test solution) ([1]; organic acid 5 mM, pH 5.0): effective; effectiveness to low light cultivation (leaf survival ratio versus control reagent) [2]: effective
O=C(O)C(=O)O [Oxalic acid, oxalic acid] | 3.7 days | – | –
O=C(O)CCC(=O)O [Succinic acid, succinic acid] | 10.4 days | – | effectiveness to low light cultivation (days until lodging versus control test solution) ([1]; organic acid 5 mM, pH 5.0): effective
OC[C@H]1O[C@H](O[C@H]2O[C@H](CO)[C@@H](O)[C@H](O)[C@H]2O)[C@H](O)[C@@H](O)[C@@H]1O [Trehalose, trehalose] | – | 21.9 days | effectiveness to low light cultivation (days until lodging versus control test solution) ([1]; sugar 3%): particularly effective
CC(O)C(=O)O (centres unmarked) [Lactic acid, lactic acid] | 6.1 days | – | –
O=C[C@H](O)[C@@H](O)[C@H](O)CO [Xylose, xylose] | – | 10.1 days | –
OC[C@H]1O[C@H](OC[C@H]2OC(O)(CO)[C@@H](O)[C@@H]2O)[C@H](O)[C@@H](O)[C@@H]1O (some centres unmarked) [Palatinose, palatinose] | – | 9.6 days | –
O=C(O)C(O)C(O)C(=O)O (centres unmarked) [Tartaric acid, tartaric acid] | 4.9 days | – | –

From US20080250710A1, “Low Light Cultivation Method and Plant Growth Promoting Agent” (priority 2005, published 2008)
